Reference: US8912186B2, “Allosteric protein kinase modulators” (Universitaet des Saarlandes, priority 2008, dated 2014)

What was measured:
Assay type in all cases: biochemical
PDK1 = target: T1, PDK1 (Homo sapiens, UniProt O15530); assay: cell-free kinase activity assay (ATPgamma[32P], T308tide substrate); conditions: for percent of catalytic activity of the Kinase in the presence of compound as compared to the solvent control (DMSO): PDK1 / activity at 50 µM / activity at 200 µM: DMSO control set 100%; for max. activation of PDK1 (fold): maximum activation achievable, compared to the basal activity of PDK1; for activity at 50 µM / activity at 200 µM: read-out: percent of catalytic activity of the Kinase in the presence of compound as compared to the solvent control (DMSO): PDK1
T1 construct: GST
T1 sequence (O15530 1-556): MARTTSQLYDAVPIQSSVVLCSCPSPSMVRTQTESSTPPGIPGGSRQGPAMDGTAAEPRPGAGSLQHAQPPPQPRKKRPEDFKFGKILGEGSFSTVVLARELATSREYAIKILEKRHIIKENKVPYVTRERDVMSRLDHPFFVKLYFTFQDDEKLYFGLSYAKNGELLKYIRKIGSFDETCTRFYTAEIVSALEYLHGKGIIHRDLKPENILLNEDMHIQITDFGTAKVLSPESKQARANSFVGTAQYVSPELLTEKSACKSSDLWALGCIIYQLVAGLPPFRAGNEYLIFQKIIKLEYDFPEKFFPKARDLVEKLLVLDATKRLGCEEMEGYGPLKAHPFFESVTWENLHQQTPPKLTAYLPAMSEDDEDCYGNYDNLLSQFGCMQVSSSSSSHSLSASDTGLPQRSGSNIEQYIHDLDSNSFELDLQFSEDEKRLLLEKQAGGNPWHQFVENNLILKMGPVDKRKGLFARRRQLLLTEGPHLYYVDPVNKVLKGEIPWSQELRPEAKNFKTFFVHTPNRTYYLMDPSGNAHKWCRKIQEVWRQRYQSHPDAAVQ
From the text: Principle of the cell-free kinase activity assay: In general, the activity of the compounds as protein kinase inhibitors or activators may be assayed in vitro (cell free assay is meant here), in vivo or in a cell line. In vitro assays include assays that determine inhibition or activation of either the phosphorylation activity or ATPase activity of the activated protein kinase. Alternate in vitro assays quantitate the ability of the inhibitor to bind to the protein kinase. Compound binding may be measured by radiolabelling the compound prior to binding, isolating the inhibitor or activator/protein kinase complex and determining the amount of radiolabel bound. Alternatively, inhibitor or activator binding may be determined by running a competition experiment where new compounds are incubated with the protein kinase bound to known radioligands. Newer methods comprise fluorescence polarisation assays and surface plasmon resonance dependent techniques. […] The activity and modulation of activity is measured using a standard ATPgamma[^32P] assay as described earlier. […] The concentration of T308tide is 1 mM and the amount of PDK1 used is 200 ng. Reactions are carried out at room temperature. Reaction is started by addition of ATP-Mg mix and stopped with phosphoric acid after 30 min. Stopped reactions were spotted on to phosphocellulose paper (P81, Whatman) and washed. After drying, the radioactivity associated to the band was quantified.

PKCζ = target: T2, PKCζ (Homo sapiens, UniProt Q05513); assay: cell-free kinase activity assay; conditions: DMSO control set 100%; for remaining activity at 50 µM / remaining activity at 200 µM: read-out: percent of catalytic activity of the Kinase in the presence of compound as compared to the solvent control (DMSO): PKCζ
T2 sequence (Q05513 1-592): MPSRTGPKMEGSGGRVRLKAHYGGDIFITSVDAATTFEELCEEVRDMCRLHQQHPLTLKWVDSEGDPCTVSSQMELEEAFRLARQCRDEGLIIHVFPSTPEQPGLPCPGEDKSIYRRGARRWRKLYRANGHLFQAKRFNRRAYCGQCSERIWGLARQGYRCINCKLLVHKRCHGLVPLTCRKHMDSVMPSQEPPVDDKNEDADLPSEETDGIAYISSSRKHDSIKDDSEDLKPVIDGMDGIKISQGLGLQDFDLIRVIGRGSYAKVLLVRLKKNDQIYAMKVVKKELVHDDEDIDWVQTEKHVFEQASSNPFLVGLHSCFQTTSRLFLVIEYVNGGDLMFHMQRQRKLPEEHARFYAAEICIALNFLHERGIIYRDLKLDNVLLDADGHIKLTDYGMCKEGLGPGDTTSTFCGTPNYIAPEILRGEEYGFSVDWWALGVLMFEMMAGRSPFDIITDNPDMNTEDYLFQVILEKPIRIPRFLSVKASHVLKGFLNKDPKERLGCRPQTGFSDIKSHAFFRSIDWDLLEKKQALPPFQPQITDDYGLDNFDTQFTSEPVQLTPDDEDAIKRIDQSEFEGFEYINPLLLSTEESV

SGK = target: T3, SGK (Homo sapiens, UniProt O00141); assay: cell-free kinase activity assay; conditions: DMSO control set 100%; for remaining activity at 200 µM: read-out: percent of catalytic activity of the Kinase in the presence of compound as compared to the solvent control (DMSO): SGK
T3 sequence (O00141 1-431): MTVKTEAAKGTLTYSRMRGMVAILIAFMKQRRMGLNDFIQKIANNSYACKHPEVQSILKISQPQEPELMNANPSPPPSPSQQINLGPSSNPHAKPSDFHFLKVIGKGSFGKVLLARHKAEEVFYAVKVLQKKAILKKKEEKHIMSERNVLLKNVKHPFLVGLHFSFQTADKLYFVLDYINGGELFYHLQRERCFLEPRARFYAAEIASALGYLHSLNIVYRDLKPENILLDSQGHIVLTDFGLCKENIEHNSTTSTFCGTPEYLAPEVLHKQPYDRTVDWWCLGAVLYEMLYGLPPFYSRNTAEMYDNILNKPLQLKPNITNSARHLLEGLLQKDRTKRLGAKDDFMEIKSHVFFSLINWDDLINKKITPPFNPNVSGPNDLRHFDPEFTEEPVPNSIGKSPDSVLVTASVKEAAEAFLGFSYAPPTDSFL

PRK2 = PRK2 (Homo sapiens, UniProt Q16513); assay: cell-free kinase activity assay; conditions: DMSO control set 100%
S6K = S6K (Homo sapiens, UniProt P23443); assay: cell-free kinase activity assay; conditions: DMSO control set 100%; for remaining activity at 200 µM: 200 μM compound
PKBβ = PKBβ (Homo sapiens, UniProt P31751); assay: cell-free kinase activity assay; conditions: DMSO control set 100%
PKA = PKA (Homo sapiens, UniProt P17612); assay: cell-free kinase activity assay; conditions: DMSO control set 100%
[1] = concentration of the compound required to activate half maximally, n.e.: no effect
[2] = read-out: percent of catalytic activity of the Kinase in the presence of compound as compared to the solvent control (DMSO): S6K
[3] = 200 μM compound, read-out: percent of catalytic activity of the Kinase in the presence of compound as compared to the solvent control (DMSO): PKBβ

Chain of PRK2 (Q16513 whole entry, species assumed): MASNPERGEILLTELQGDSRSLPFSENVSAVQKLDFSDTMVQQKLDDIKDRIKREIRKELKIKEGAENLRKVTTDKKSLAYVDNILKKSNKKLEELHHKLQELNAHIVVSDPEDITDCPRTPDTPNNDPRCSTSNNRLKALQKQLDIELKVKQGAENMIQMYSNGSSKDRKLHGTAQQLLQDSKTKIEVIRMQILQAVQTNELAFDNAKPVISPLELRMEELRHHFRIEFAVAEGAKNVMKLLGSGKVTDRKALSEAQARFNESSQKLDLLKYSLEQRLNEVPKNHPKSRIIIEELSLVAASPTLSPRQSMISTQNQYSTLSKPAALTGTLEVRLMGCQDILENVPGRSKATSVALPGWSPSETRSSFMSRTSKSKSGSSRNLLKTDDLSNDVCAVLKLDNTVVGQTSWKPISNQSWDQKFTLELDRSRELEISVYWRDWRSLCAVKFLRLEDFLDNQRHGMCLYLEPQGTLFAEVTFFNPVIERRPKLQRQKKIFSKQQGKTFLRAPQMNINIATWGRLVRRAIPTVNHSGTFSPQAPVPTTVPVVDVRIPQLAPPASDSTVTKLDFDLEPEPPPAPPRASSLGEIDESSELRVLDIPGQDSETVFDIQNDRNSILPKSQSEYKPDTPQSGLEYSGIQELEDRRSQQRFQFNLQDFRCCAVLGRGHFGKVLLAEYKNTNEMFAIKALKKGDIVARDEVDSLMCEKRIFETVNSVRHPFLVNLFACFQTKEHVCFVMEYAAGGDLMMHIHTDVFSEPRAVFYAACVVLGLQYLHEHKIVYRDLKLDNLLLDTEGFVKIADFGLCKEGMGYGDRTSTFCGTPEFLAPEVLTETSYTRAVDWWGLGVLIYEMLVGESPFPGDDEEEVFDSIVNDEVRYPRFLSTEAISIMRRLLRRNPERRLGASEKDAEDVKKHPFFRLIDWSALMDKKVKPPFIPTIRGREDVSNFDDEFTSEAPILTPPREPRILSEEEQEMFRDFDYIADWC
Chain of PKBβ (P31751 whole entry, species assumed): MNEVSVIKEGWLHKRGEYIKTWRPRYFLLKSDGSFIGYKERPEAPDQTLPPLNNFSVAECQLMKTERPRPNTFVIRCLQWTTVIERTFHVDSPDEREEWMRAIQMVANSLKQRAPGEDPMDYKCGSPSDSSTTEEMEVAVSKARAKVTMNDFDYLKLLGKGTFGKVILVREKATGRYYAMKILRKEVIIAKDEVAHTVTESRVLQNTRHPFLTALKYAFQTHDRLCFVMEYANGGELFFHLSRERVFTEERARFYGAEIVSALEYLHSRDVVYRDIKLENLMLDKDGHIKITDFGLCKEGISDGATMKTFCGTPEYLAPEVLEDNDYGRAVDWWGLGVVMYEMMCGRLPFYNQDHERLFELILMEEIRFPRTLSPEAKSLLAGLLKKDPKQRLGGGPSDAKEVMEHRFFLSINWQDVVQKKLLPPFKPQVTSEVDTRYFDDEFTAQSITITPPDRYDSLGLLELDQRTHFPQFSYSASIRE
Chain of S6K (P23443 whole entry): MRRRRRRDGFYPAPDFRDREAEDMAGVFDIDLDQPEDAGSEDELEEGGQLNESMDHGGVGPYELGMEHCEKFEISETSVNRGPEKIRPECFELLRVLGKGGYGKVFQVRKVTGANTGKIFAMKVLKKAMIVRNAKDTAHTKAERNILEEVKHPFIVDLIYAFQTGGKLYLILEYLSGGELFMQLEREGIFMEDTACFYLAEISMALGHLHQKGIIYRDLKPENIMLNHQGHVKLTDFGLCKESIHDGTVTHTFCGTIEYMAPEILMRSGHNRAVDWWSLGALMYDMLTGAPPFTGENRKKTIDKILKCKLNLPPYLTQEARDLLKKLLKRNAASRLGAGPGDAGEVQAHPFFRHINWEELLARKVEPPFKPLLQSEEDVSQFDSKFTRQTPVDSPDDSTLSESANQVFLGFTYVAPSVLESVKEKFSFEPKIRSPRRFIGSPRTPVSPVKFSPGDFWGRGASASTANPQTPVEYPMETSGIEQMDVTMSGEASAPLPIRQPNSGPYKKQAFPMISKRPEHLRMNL

| max. activation of PDK1 (fold) (PDK1; n.e.: no effect) | remaining activity at 50 µM (PKCζ; 50 μM compound) [%] | remaining activity at 200 µM (PKCζ; 200 μM compound) [%] | percent of catalytic activity of the Kinase in the presence of compound as compared to the solvent control (DMSO): SGK (SGK; 50 μM compound) | remaining activity at 200 µM (SGK; 200 μM compound) [%] | percent of catalytic activity of the Kinase in the presence of compound as compared to the solvent control (DMSO): PRK2 (PRK2; 50 μM compound) | percent of catalytic activity of the Kinase in the presence of compound as compared to the solvent control (DMSO): PRK2 (PRK2; 200 μM compound) | remaining activity at 200 µM (S6K; [2]) [%] | remaining activity at 200 µM (PKBβ; [3]) [%] | percent of catalytic activity of the Kinase in the presence of compound as compared to the solvent control (DMSO): PKA (PKA; 50 μM compound) | percent of catalytic activity of the Kinase in the presence of compound as compared to the solvent control (DMSO): PKA (PKA; 200 μM compound) | activity at 50 µM (PDK1; 50 μM compound) [%] | activity at 200 µM (PDK1; 200 μM compound) [%] | percent of catalytic activity of the Kinase in the presence of compound as compared to the solvent control (DMSO): S6K (S6K; 50 μM compound) | percent of catalytic activity of the Kinase in the presence of compound as compared to the solvent control (DMSO): PKBβ (PKBβ; 50 μM compound) | percent of catalytic activity of the Kinase in the presence of compound as compared to the solvent control (DMSO): PKBβ (PKBβ; 200 μM compound) | percent of catalytic activity of the Kinase in the presence of compound as compared to the solvent control (DMSO): PKCζ (PKCζ; 50 μM compound) | also measured | SMILES |
| --- | --- | --- | --- | --- | --- | --- | --- | --- | --- | --- | --- | --- | --- | --- | --- | --- | --- | --- |
| n.e. | 10 to 20 | 0 | no effect | ~20 | no effect | no effect | 25 | 25 | no effect | no effect | – | – | – | – | – | – | percent of catalytic activity of the Kinase in the presence of compound as compared to the solvent control (DMSO): PDK1 (PDK1; 50 μM compound): no effect; percent of catalytic activity of the Kinase in the presence of compound as compared to the solvent control (DMSO): PDK1 (PDK1; 200 μM compound): no effect; AC50 PDK1 (μM) (PDK1; [1]): n.e.; remaining activity at 50 µM (S6K; 50 μM compound, read-out: percent of catalytic activity of the Kinase in the presence of compound as compared to the solvent control (DMSO): S6K): 85%; remaining activity at 50 µM (PKBβ; 50 μM compound, read-out: percent of catalytic activity of the Kinase in the presence of compound as compared to the solvent control (DMSO): PKBβ): 90% | O=C(O)/C=C(/c1ccccc1)c1cc2cc(Cl)ccc2s1 [PS 118, (Z)-3-(5-Chloro-2-benzothiophenyl)-3-phenylacrylic acid] |
| – | 80 | 30 to 40 | no effect | 70 to 80 | no effect | no effect | ~80 | – | no effect | no effect | 300 | 400 | no effect | no effect | no effect | – | – | O=C(O)CC(CC(=O)N1Cc2ccc(Cl)cc2C1)c1ccc(Cl)cc1 (centres unmarked) [PS 141] |
| – | – | – | no effect | – | no effect | no effect | ~80 | – | no effect | no effect | 240 | 310 | no effect | no effect | no effect | no effect | percent of catalytic activity of the Kinase in the presence of compound as compared to the solvent control (DMSO): PKCζ (PKCζ; 200 μM compound): no effect; percent of catalytic activity of the Kinase in the presence of compound as compared to the solvent control (DMSO): SGK (SGK; 200 μM compound): no effect | O=C(O)CC(C(=O)N1CCc2ccccc2C1)c1ccc(Cl)cc1 (centres unmarked) [PS 152] |
| – | – | 50 | no effect | ~60 | no effect | no effect | ~50 | – | no effect | no effect | ~250 | > 250 | no effect | no effect | no effect | no effect | – | O=C(O)CC(Cc1nc2cc(Cl)c(Cl)cc2[nH]1)c1ccccc1 (centres unmarked) [PS 163, 4-(5,6-Dichloro-2-benzimidazolyl)-3-phenylbutanoic acid] |
| 4.7 fold | ~0 | ~0 | weak inhib. | ~20 | no effect | no effect | ~60 | ~80 | no effect | – | > 250 | > 250 | no effect | no effect | – | – | AC50 (PDK1; [1]): 13.8 µM; remaining activity at 200 µM (PKA; 200 μM compound, read-out: percent of catalytic activity of the Kinase in the presence of compound as compared to the solvent control (DMSO): PKA): ~60% | O=C(O)/C=C(/CCc1ccc(C(F)(F)F)cc1)c1ccccc1 [PS-T5, (Z)-3-Phenyl-5-[4-(trifluoromethyl)phenyl]pent-2-enoic acid] |
